Results published in US8304446B2, “Compounds” (Glaxo Group Limited, priority 2009, dated 2012).
Where a name gives a salt, the structure may show the parent alone.

Legend:
CCR4 = target: T1, CCR4 (Homo sapiens, UniProt P51679); experiment: [35S]-GTPγS SPA binding assay for CCR4 antagonist activity; type: biochemical; settings: CCR4 expressing CHO membranes; human MDC at EC80; [35S]-GTPγS competition
T1 construct: expressed in transfected cells; host or cells: CHO cell membranes
T1 sequence (P51679 1-360): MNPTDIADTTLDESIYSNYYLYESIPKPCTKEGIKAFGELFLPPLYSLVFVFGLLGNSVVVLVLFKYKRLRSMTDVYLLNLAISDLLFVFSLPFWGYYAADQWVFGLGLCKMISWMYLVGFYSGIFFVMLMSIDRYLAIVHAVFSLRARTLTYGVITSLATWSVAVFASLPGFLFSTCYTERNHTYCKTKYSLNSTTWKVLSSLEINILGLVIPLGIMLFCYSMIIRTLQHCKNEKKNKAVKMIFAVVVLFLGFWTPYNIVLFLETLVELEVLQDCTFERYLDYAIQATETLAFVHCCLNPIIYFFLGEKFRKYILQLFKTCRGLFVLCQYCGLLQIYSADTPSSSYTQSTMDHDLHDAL
Procedure: [35S]-GTPγS SPA Binding Assays for CCR4 Antagonist Activity
Antagonist potency was determined by a radioligand [35S]-GTPγS competition assay. Briefly, CCR4 expressing CHO membranes were homogenised by passing through a 23G needle. These membranes were then adhered to WGA-coated Leadseeker SPA beads in assay buffer (20 mM HEPES, 10 mM MgCl2, 100 mM NaCl, 0.05% BSA, 40 ug/ml Saponin and pH adjusted to 7.4 using KOH 5M) to generate a 3 μg/well final assay concentration (FAC) membrane and 250 μg/well FAC bead, solution.
The bead/membrane/[35S]-GTPγS/Agonist suspension was dispensed into white Greiner polypropylene 384-well plates (45 μl/well), containing 0.5 μl of compound. […] Plates were then read on a Viewlux instrument and luminescence was then plotted as a percentage of the maximum inhibitional response elicited by an IC100 of a standard antagonist.

CD4+ CCR4+ T cells = experiment: Chemokine stimulated increases in cellular F-actin content; type: cell-based; settings: Homo sapiens, T-cell, 0.5 h; PBMC from normal volunteers; antagonist 30 min at 37° C. before agonist for 15 sec; F-actin content by flow cytometry; read-out: pA2 (converted)
Summary of the method: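 Human PBMC from citrated volunteer blood, stained for CD4 and CCR4, were pre-incubated with antagonist or vehicle (0.1% DMSO) for 30 min at 37 °C, then stimulated with agonist for 15 s and formaldehyde-fixed. F-actin was stained with phalloidin and read by flow cytometry as CD4+CCR4+ MFI relative to CD4+CCR4− cells.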

## COc1cccc2c1c(NS(=O)(=O)c1ccc(Cl)s1)nn2Cc1cccc(CNC(=O)C2COCCN2C)c1 (single isomer, unassigned; enantiomer 1) [Example 124, N-[(3-{[3-{[(5-Chloro-2-thienyl)sulfonyl]amino}-4-(methyloxy)-1H-indazol-1-yl]methyl}phenyl)methyl]-4-methyl-3-morpholinecarboxamide Enantiomer 1]
CCR4
  IC50: 3.98 to 15.8 nM
CD4+ CCR4+ T cells
  Kb: ≤ 126 nM

## CCC(=O)NCc1cccc(Cn2nc(NS(=O)(=O)c3ccc(Cl)s3)c3c(OC)cccc32)c1 [Example 2, N-[(3-{[3-{[(5-chloro-2-thienyl)sulfonyl]amino}-4-(methyloxy)-1H-indazol-1-yl]methyl}phenyl)methyl]propanamide]
CCR4
  IC50: 3.98 to 15.8 nM
CD4+ CCR4+ T cells
  Kb: ≤ 126 nM

## COc1cccc2c1c(NS(=O)(=O)c1ccc(Cl)s1)nn2Cc1cccc(CNC(=O)C(C)C)c1 [Example 3, N-[(3-{[3-{[(5-chloro-2-thienyl)sulfonyl]amino}-4-(methyloxy)-1H-indazol-1-yl]methyl}phenyl)methyl]-2-methylpropanamide]
CCR4
  IC50: 3.98 to 15.8 nM
CD4+ CCR4+ T cells
  Kb: ≤ 126 nM

## COc1cccc2c1c(NS(=O)(=O)c1ccc(Cl)s1)nn2Cc1cccc(CNC(=O)C(C)(C)C)c1 [Example 4, N-[(3-{[3-{[(5-chloro-2-thienyl)sulfonyl]amino}-4-(methyloxy)-1H-indazol-1-yl]methyl}phenyl)methyl]-2,2-dimethylpropanamide]
CCR4
  IC50: 3.98 to 15.8 nM
CD4+ CCR4+ T cells
  Kb: ≤ 126 nM

## COc1cccc2c1c(NS(=O)(=O)c1ccc(Cl)s1)nn2Cc1cccc(CNC(=O)C2COCCN2)c1 (centres unmarked) [Example 6, N-[(3-{[3-{[(5-chloro-2-thienyl)sulfonyl]amino}-4-(methyloxy)-1H-indazol-1-yl]methyl}phenyl)methyl]-3-morpholinecarboxamide trifluoroacetate]
CCR4
  IC50: 3.98 to 15.8 nM
CD4+ CCR4+ T cells
  Kb: ≤ 126 nM

## COc1cccc2c1c(NS(=O)(=O)c1ccc(Cl)s1)nn2Cc1cccc(CNC(=O)[C@H]2COCCN2)c1 [Example 7, (3R)—N-[(3-{[3-{[(5-Chloro-2-thienyl)sulfonyl]amino}-4-(methyloxy)-1H-indazol-1-yl]methyl}phenyl)methyl]-3-morpholinecarboxamide hydrochloride]
CCR4
  IC50: 3.98 to 15.8 nM
CD4+ CCR4+ T cells
  Kb: ≤ 126 nM

## COc1cccc2c1c(NS(=O)(=O)c1ccc(Cl)s1)nn2Cc1cccc(CNC(=O)[C@@H]2COCCN2)c1 [Example 8, (3S)—N-[(3-{[3-{[(5-Chloro-2-thienyl)sulfonyl]amino}-4-(methyloxy)-1H-indazol-1-yl]methyl}phenyl)methyl]-3-morpholinecarboxamide hydrochloride]
CCR4
  IC50: 3.98 to 15.8 nM
CD4+ CCR4+ T cells
  Kb: ≤ 126 nM

## CN[C@H](C)C(=O)NCc1cccc(Cn2nc(NS(=O)(=O)c3ccc(Cl)s3)c3c(OC)cccc32)c1 [Example 10, N^1-[(3-{[3-{[(5-chloro-2-thienyl)sulfonyl]amino}-4-(methyloxy)-1H-indazol-1-yl]methyl}phenyl)methyl]-N^2-methyl-D-alaninamide hydrochloride]
CCR4
  IC50: 3.98 to 15.8 nM
CD4+ CCR4+ T cells
  Kb: ≤ 126 nM

## COc1cccc2c1c(NS(=O)(=O)c1ccc(Cl)s1)nn2Cc1cccc(CNC(=O)C2CNCCN2)c1 (centres unmarked) [Example 16, N-[(3-{[3-{[(5-chloro-2-thienyl)sulfonyl]amino}-4-(methyloxy)-1H-indazol-1-yl]methyl}phenyl)methyl]-2-piperazinecarboxamide hydrochloride]
CCR4
  IC50: 3.98 to 15.8 nM
CD4+ CCR4+ T cells
  Kb: ≤ 126 nM

## CN[C@@H](C)C(=O)NCc1cccc(Cn2nc(NS(=O)(=O)c3ccc(Cl)s3)c3c(OC)cccc32)c1 [Example 17, N^1-[(3-{[3-{[(5-chloro-2-thienyl)sulfonyl]amino}-4-(methyloxy)-1H-indazol-1-yl]methyl}phenyl)methyl]-N^2-methyl-L-alaninamide trifluoroacetate]
CCR4
  IC50: 3.98 to 15.8 nM
CD4+ CCR4+ T cells
  Kb: ≤ 126 nM

## COc1cccc2c1c(NS(=O)(=O)c1ccc(Cl)s1)nn2Cc1cccc(CNC(=O)[C@H](C)N)c1 [Example 18, N^1-[(3-{[3-{[(5-chloro-2-thienyl)sulfonyl]amino}-4-(methyloxy)-1H-indazol-1-yl]methyl}phenyl)methyl]-L-alaninamide trifluoroacetate]
CCR4
  IC50: 3.98 to 15.8 nM
CD4+ CCR4+ T cells
  Kb: ≤ 126 nM

## COc1cccc2c1c(NS(=O)(=O)c1ccc(Cl)s1)nn2Cc1cccc(CNC(=O)CC(N)=O)c1 [Example 21, N-[(3-{[3-{[(5-chloro-2-thienyl)sulfonyl]amino}-4-(methyloxy)-1H-indazol-1-yl]methyl}phenyl)methyl]propanediamide]
CCR4
  IC50: 3.98 to 15.8 nM
CD4+ CCR4+ T cells
  Kb: ≤ 126 nM

## COc1cccc2c1c(NS(=O)(=O)c1ccc(Cl)s1)nn2Cc1cccc(CNC(=O)CCCC(=O)O)c1 [Example 139, 5-{[(3-{[3-{[(5-Chloro-2-thienyl)sulfonyl]amino}-4-(methyloxy)-1H-indazol-1-yl]methyl}phenyl)methyl]amino}-5-oxopentanoic acid]
CCR4
  IC50: 3.98 to 15.8 nM

## COc1cccc2c1c(NS(=O)(=O)c1ccc(Cl)s1)nn2Cc1cccc(CNC(=O)CCCCC(=O)O)c1 [Example 140, 6-{[(3-{[3-{[(5-Chloro-2-thienyl)sulfonyl]amino}-4-(methyloxy)-1H-indazol-1-yl]methyl}phenyl)methyl]amino}-6-oxohexanoic acid]
CCR4
  IC50: 3.98 to 15.8 nM

## COc1cccc2c1c(NS(=O)(=O)c1ccc(Cl)s1)nn2Cc1cccc(CNC(=O)c2ccc(C(=O)O)cc2)c1 [Example 142, 4-({[(3-{[3-{[(5-Chloro-2-thienyl)sulfonyl]amino}-4-(methyloxy)-1H-indazol-1-yl]methyl}phenyl)methyl]amino}carbonyl)benzoic acid]
CCR4
  IC50: 3.98 to 15.8 nM

## COc1cccc2c1c(NS(=O)(=O)c1ccc(Cl)s1)nn2Cc1cccc(CNC(=O)[C@H]2CC[C@H](C(=O)O)CC2)c1 [Example 143, trans-4-({[(3-{[3-{[(5-Chloro-2-thienyl)sulfonyl]amino}-4-(methyloxy)-1H-indazol-1-yl]methyl}phenyl)methyl]amino}carbonyl)cyclohexanecarboxylic acid]
CCR4
  IC50: 3.98 to 15.8 nM

## COc1cccc2c1c(NS(=O)(=O)c1ccc(Cl)s1)nn2Cc1cccc(CNC(=O)CCCCCCC(=O)O)c1 [Example 144, 8-{[(3-{[3-{[(5-Chloro-2-thienyl)sulfonyl]amino}-4-(methyloxy)-1H-indazol-1-yl]methyl}phenyl)methyl]amino}-8-oxooctanoic acid]
CCR4
  IC50: 3.98 to 15.8 nM

## CC(=O)NCc1cccc(Cn2nc(NS(=O)(=O)c3ccc(Cl)s3)c3c(CO)cccc32)c1 [Example 148, N-[(3-{[3-{[(5-Chloro-2-thienyl)sulfonyl]amino}-4-(hydroxymethyl)-1H-indazol-1-yl]methyl}phenyl)methyl]acetamide]
CCR4
  IC50: 3.98 to 15.8 nM

## CC(=O)NCc1cccc(Cn2nc(NS(=O)(=O)c3ccc(Cl)s3)c3c(C(C)O)cccc32)c1 (centres unmarked) [Example 149, N-[(3-{[3-{[(5-Chloro-2-thienyl)sulfonyl]amino}-4-(1-hydroxyethyl)-1H-indazol-1-yl]methyl}phenyl)methyl]acetamide]
CCR4
  IC50: 3.98 to 15.8 nM

## CC(O)c1cccc2c1c(NS(=O)(=O)c1ccc(Cl)s1)nn2Cc1cccc(CNC(=O)C(C)(C)O)c1 (centres unmarked) [Example 151, N-[(3-{[3-{[(5-Chloro-2-thienyl)sulfonyl]amino}-4-(1-hydroxyethyl)-1H-indazol-1-yl]methyl}phenyl)methyl]-2-hydroxy-2-methylpropanamide]
CCR4
  IC50: 3.98 to 15.8 nM

## CC(O)c1cccc2c1c(NS(=O)(=O)c1ccc(Cl)s1)nn2Cc1cccc(CNC(=O)[C@H]2COCCN2)c1 (stereo partly drawn) [Example 152, (3R)—N-[(3-{[3-{[(5-Chloro-2-thienyl)sulfonyl]amino}-4-(1-hydroxyethyl)-1H-indazol-1-yl]methyl}phenyl)methyl]-3-morpholinecarboxamide formate salt]
CCR4
  IC50: 3.98 to 15.8 nM

## CC(O)c1cccc2c1c(NS(=O)(=O)c1ccc(Cl)s1)nn2Cc1cccc(CNC(=O)[C@@H]2COCCN2)c1 (stereo partly drawn) [Example 153, (3S)—N-[(3-{[3-{[(5-Chloro-2-thienyl)sulfonyl]amino}-4-(1-hydroxyethyl)-1H-indazol-1-yl]methyl}phenyl)methyl]-3-morpholinecarboxamide formate salt]
CCR4
  IC50: 3.98 to 15.8 nM

## CC(C)(O)c1cccc2c1c(NS(=O)(=O)c1ccc(Cl)s1)nn2Cc1cccc(CNC(=O)[C@@H]2COCCN2)c1 [Example 156, (3S)—N-[(3-{[3-{[(5-Chloro-2-thienyl)sulfonyl]amino}-4-(1-hydroxy-1-methylethyl)-1H-indazol-1-yl]methyl}phenyl)methyl]-3-morpholinecarboxamide]
CCR4
  IC50: 100 to 398 nM
